According to PubChem BioAssay (NCI):
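Following 48 hours of exposure in 96-well plates, responses at five concentrations were used to interpolate endpoints linearly. GI50 = concentration required for 50% inhibition of growth. At the TGI there is no net growth.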

Experiments:
Experiment in all cases: DTP human tumour cell line panel, 48 h
[1] = system: OVCAR-8 ovarian
[2] = system: CCRF-CEM leukemia
[3] = system: M14 melanoma
[4] = system: UACC-257 melanoma
[5] = system: UO-31 renal
[6] = system: HL-60(TB) leukemia
[7] = system: K-562 leukemia
[8] = system: HCC-2998 colon
[9] = system: SK-MEL-5 melanoma
[10] = system: KM12 colon
[11] = system: HCT-116 colon
[12] = system: HCT-15 colon
[13] = system: OVCAR-4 ovarian
[14] = system: SK-MEL-28 melanoma
[15] = system: 786-0 renal
[16] = system: RXF 393 renal
[17] = system: NCI-H460 lung
[18] = system: SF-295 CNS
[19] = system: NCI-H23 lung
[20] = system: SF-268 CNS
[21] = system: CAKI-1 renal
[22] = system: MOLT-4 leukemia
[23] = system: SN12C renal
[24] = system: MALME-3M melanoma
[25] = system: SF-539 CNS
[26] = system: SNB-19 CNS
[27] = system: DLD-1 colon
[28] = system: UACC-62 melanoma
[29] = system: NCI-H226 lung
[30] = system: M19-MEL melanoma
[31] = system: IGROV1 ovarian
[32] = system: KM20L2 colon
[33] = system: LOX IMVI melanoma
[34] = system: A549 NSCLC
[35] = system: DMS 114 small cell lung
[36] = system: SK-OV-3 ovarian
[37] = system: ACHN renal
[38] = system: OVCAR-3 ovarian
[39] = system: NCI-H522 lung
[40] = system: HOP-62 NSCLC
[41] = system: SK-MEL-2 melanoma
[42] = system: U251 CNS
[43] = system: HT29 colon
[44] = system: SNB-75 CNS
[45] = system: RPMI-8226 leukemia
[46] = system: SW-620 colon
[47] = system: A498 renal
[48] = system: EKVX NSCLC
[49] = system: DMS 273 small cell lung
[50] = system: LXFL 529 NSCLC
[51] = system: OVCAR-5 ovarian
[52] = system: SR leukemia
[53] = system: HOP-18 NSCLC
[54] = system: COLO 205 colon
[55] = system: SNB-78 CNS
[56] = system: TK-10 renal
[57] = system: HOP-92 NSCLC

SMILES: O=C(/C=C/c1ccc(Cl)cc1)c1ccc(Cl)c(Cl)c1
- TGI [1]: 47.9 µM
- TGI [2]: 50.5 µM
- TGI [3]: > 100 µM
- TGI [4]: 98.8 µM
- TGI [5]: 80.9 µM
- GI50 [6]: 15.9 µM
- TGI [6]: 45.8 µM
- TGI [7]: > 100 µM
- TGI [8]: > 100 µM
- TGI [9]: 68.7 µM
- GI50 [10]: 12.2 µM
- TGI [10]: > 100 µM
- TGI [11]: > 100 µM
- TGI [12]: > 100 µM
- TGI [13]: > 100 µM
- TGI [14]: 66.7 µM
- TGI [15]: > 100 µM
- TGI [16]: 72.2 µM
- TGI [17]: > 100 µM
- TGI [18]: > 100 µM
- TGI [19]: 30.2 µM
- TGI [20]: > 100 µM
- TGI [21]: 53.1 µM
- TGI [22]: 69.6 µM
- GI50 [23]: 48 µM
- TGI [23]: > 100 µM
- TGI [24]: 62.4 µM
- TGI [25]: 56.9 µM
- TGI [26]: 75.5 µM
- TGI [27]: > 100 µM
- TGI [28]: 70 µM
- TGI [29]: 34.9 µM
- TGI [30]: > 100 µM
- TGI [31]: 79.9 µM
- TGI [32]: > 100 µM
- TGI [33]: > 100 µM
- TGI [34]: > 100 µM
- TGI [35]: > 100 µM
- TGI [36]: 85.9 µM
- TGI [37]: > 100 µM
- TGI [38]: 48.3 µM
- TGI [39]: 42.9 µM
- TGI [40]: 53.9 µM
- TGI [41]: 47.8 µM
- TGI [42]: 44.5 µM
- TGI [43]: > 100 µM
- TGI [44]: 61.5 µM
- TGI [45]: 8.88 µM
- GI50 [46]: 19.6 µM
- TGI [46]: > 100 µM
- TGI [47]: > 100 µM
- TGI [48]: 87.2 µM
- TGI [49]: > 100 µM
- TGI [50]: 92.5 µM

SMILES: O=C1C=C(c2[nH]c3ccccc3c2C2=CC(=O)c3ccccc3C2=O)C(=O)c2ccccc21
- TGI [1]: > 100 µM
- TGI [2]: 43.9 µM
- TGI [3]: > 100 µM
- TGI [5]: > 100 µM
- TGI [6]: 44.4 µM
- TGI [7]: 60.1 µM
- TGI [9]: > 100 µM
- TGI [10]: > 100 µM
- TGI [13]: > 100 µM
- TGI [14]: > 100 µM
- TGI [15]: > 100 µM
- TGI [16]: > 100 µM
- TGI [17]: > 100 µM
- TGI [18]: > 100 µM
- TGI [19]: > 100 µM
- TGI [20]: > 100 µM
- TGI [22]: 35.7 µM
- TGI [51]: > 100 µM
- TGI [52]: 57.1 µM
- TGI [25]: > 100 µM
- TGI [26]: > 100 µM
- TGI [53]: > 100 µM
- TGI [27]: > 100 µM
- TGI [28]: 71.3 µM
- TGI [29]: > 100 µM
- TGI [30]: 35.4 µM
- TGI [54]: > 100 µM
- TGI [55]: > 100 µM
- TGI [31]: 95.6 µM
- TGI [56]: > 100 µM
- TGI [33]: 59 µM
- TGI [34]: > 100 µM
- TGI [35]: 36.6 µM
- TGI [36]: > 100 µM
- TGI [37]: > 100 µM
- TGI [38]: 88.3 µM
- TGI [42]: > 100 µM
- TGI [43]: > 100 µM
- TGI [44]: 57.6 µM
- TGI [45]: > 100 µM
- TGI [46]: > 100 µM
- TGI [47]: > 100 µM
- TGI [48]: > 100 µM
- TGI [49]: > 100 µM
- TGI [50]: > 100 µM

SMILES: C=CCCCCCCCC(O)C1C[C@H](O)C(CCCCC)O1 (stereo not given in full)
- TGI [1]: 40.2 µM
- TGI [2]: 41.6 µM
- TGI [3]: 34.6 µM
- TGI [57]: 30.7 µM
- TGI [5]: 31.9 µM
- TGI [6]: 37.4 µM
- TGI [7]: 47.6 µM
- TGI [8]: 33.4 µM
- TGI [9]: 34.7 µM
- TGI [10]: 41.3 µM
- TGI [11]: 34.5 µM
- TGI [12]: 40 µM
- TGI [14]: 33.7 µM
- TGI [15]: 32.2 µM
- TGI [16]: 37.7 µM
- TGI [17]: 37.2 µM
- TGI [18]: 33 µM
- TGI [19]: 36.8 µM
- TGI [21]: 34.6 µM
- TGI [22]: 43.6 µM
- TGI [23]: 36 µM
- TGI [24]: 33.5 µM
- TGI [25]: 30.7 µM
- TGI [53]: 32.1 µM
- TGI [27]: 31 µM
- TGI [28]: 29.6 µM
- TGI [29]: 29.6 µM
- TGI [30]: 35.9 µM
- TGI [54]: 34.5 µM
- TGI [55]: 45.1 µM
- TGI [31]: 42.2 µM
- TGI [56]: 34.8 µM
- TGI [33]: 36.1 µM
- TGI [34]: 37.5 µM
- TGI [35]: 37 µM
- TGI [36]: 43.2 µM
- TGI [37]: 36.6 µM
- TGI [38]: 32.7 µM
- TGI [39]: 35.1 µM
- TGI [42]: 31.3 µM
- TGI [43]: 35.6 µM
- TGI [44]: 29.7 µM
- TGI [45]: 43.9 µM
- TGI [46]: 41.7 µM
- TGI [47]: 36.1 µM
- TGI [48]: 36.7 µM
- TGI [49]: 32.8 µM
- TGI [50]: 29 µM

SMILES: CNS(=O)(=O)NNS(=O)(=O)c1cccc([N+](=O)[O-])c1
- TGI [1]: > 100 µM
- TGI [2]: > 100 µM
- TGI [3]: > 100 µM
- TGI [4]: > 100 µM
- TGI [5]: > 100 µM
- TGI [7]: > 100 µM
- TGI [8]: > 100 µM
- TGI [9]: > 100 µM
- TGI [10]: > 100 µM
- TGI [11]: > 100 µM
- TGI [12]: > 100 µM
- TGI [13]: > 100 µM
- TGI [15]: > 100 µM
- TGI [16]: > 100 µM
- TGI [17]: > 100 µM
- TGI [18]: > 100 µM
- TGI [19]: > 100 µM
- TGI [21]: > 100 µM
- TGI [22]: > 100 µM
- TGI [23]: > 100 µM
- TGI [52]: > 100 µM
- TGI [24]: > 100 µM
- TGI [25]: > 100 µM
- TGI [26]: > 100 µM
- TGI [27]: > 100 µM
- TGI [28]: > 100 µM
- TGI [30]: > 100 µM
- TGI [54]: > 100 µM
- TGI [31]: > 100 µM
- TGI [32]: > 100 µM
- TGI [56]: > 100 µM
- TGI [33]: > 100 µM
- TGI [34]: > 100 µM
- TGI [35]: > 100 µM
- TGI [37]: > 100 µM
- TGI [38]: > 100 µM
- TGI [39]: > 100 µM
- TGI [40]: > 100 µM
- TGI [41]: > 100 µM
- TGI [42]: > 100 µM
- TGI [43]: > 100 µM
- TGI [44]: > 100 µM
- TGI [45]: > 100 µM
- TGI [46]: > 100 µM
- TGI [48]: > 100 µM
- TGI [49]: > 100 µM
- TGI [50]: > 100 µM

SMILES: CC1=C(C(=O)CC(=O)C(=O)Nc2cccc(C)c2C)Sc2ccccc2N1
- TGI [1]: > 100 µM
- TGI [2]: > 100 µM
- TGI [3]: > 100 µM
- TGI [4]: > 100 µM
- TGI [57]: > 100 µM
- TGI [5]: > 100 µM
- TGI [6]: > 100 µM
- TGI [7]: > 100 µM
- TGI [8]: > 100 µM
- TGI [9]: > 100 µM
- TGI [10]: > 100 µM
- TGI [11]: > 100 µM
- TGI [12]: > 100 µM
- TGI [13]: > 100 µM
- TGI [14]: > 100 µM
- TGI [15]: > 100 µM
- TGI [16]: > 100 µM
- TGI [17]: > 100 µM
- TGI [18]: > 100 µM
- TGI [19]: > 100 µM
- TGI [20]: > 100 µM
- TGI [21]: > 100 µM
- TGI [22]: > 100 µM
- TGI [23]: > 100 µM
- TGI [51]: > 100 µM
- TGI [24]: > 100 µM
- TGI [25]: > 100 µM
- TGI [26]: > 100 µM
- TGI [53]: > 100 µM
- TGI [27]: > 100 µM
- TGI [28]: > 100 µM
- TGI [29]: > 100 µM
- TGI [30]: > 100 µM
- TGI [55]: > 100 µM
- TGI [31]: > 100 µM
- TGI [56]: > 100 µM
- TGI [33]: > 100 µM
- TGI [34]: > 100 µM
- TGI [35]: > 100 µM
- TGI [36]: > 100 µM
- TGI [37]: > 100 µM
- TGI [38]: > 100 µM
- TGI [39]: > 100 µM
- TGI [40]: > 100 µM
- TGI [41]: > 100 µM
- TGI [42]: > 100 µM
- TGI [43]: > 100 µM
- TGI [45]: > 100 µM
- TGI [46]: > 100 µM
- TGI [48]: > 100 µM
- TGI [50]: > 100 µM
